Experimental data published in patent US11596664B2, “Plant extracts made of Sideritis and use thereof to boost cognitive performance” (Finzelberg GmbH & Co. KG, priority 2010, dated 2023).

Tested on: serotonin absorption (serotonergic re-uptake)
Assay: Serotonin absorption inhibition, test system according to EP 1 634 602
Format: biochemical
Conditions: reference substance at 10 μm; defines 100%
From the text: Serotonergic neurotransmission being influenced is described for plants of the genus Sideritis in the patent application EP 1 634 602. […] The experimental set-up described in paragraphs [0046] to [0054] for measuring serotonergic re-uptake rates was used for initial screening of suitable species for the tests.
50 g of the herbal drug is mixed twice with 15 times the quantity of boiling water and extracted with agitation. Both maceration extracts are allowed to stand at room temperature to cool down and combined. The two combined macerations are filtered off with a fluted filter and concentrated to a soft extract using a rotary evaporator. The extractive yields determined for the different species are shown below. In order to test for the serotonin absorption inhibition, the extracts were all weighed in at the same native content and assayed with a measuring concentration of 50 μg/ml in the test system according to EP 1 634 602.
50 g of the herb Sideritis was mixed twice at 45° C. with 15 times the quantity of a mixture of water and ethanol and extracted with agitation. Both maceration extracts were allowed to stand at room temperature to cool down and combined. The two combined macerations were filtered off with a fluted filter and concentrated to a soft extract using a rotary evaporator. The extractive yields determined for the different species are shown below. […]

With `COCCCC/C(=N\OCCN)c1ccc(C(F)(F)F)cc1` [fluvoxamine] as the molecule, how does the “Serotonin absorption inhibition, positive control” value read?
The value was 100%.
